From patent US20260258035A1, “FIVE-MEMBERED AND SIX-MEMBERED NITROGEN-CONTAINING COMPOUND, AND INTERMEDIATE, PREPARATION METHOD AND USE THEREOF” (HANGZHOU SYNRX THERAPEUTICS BIOMEDICAL TECHNOLOGY CO., LTD., priority 2022, published 2026)

Columns and labels:
[1] = biological target: PARG (Homo sapiens, UniProt Q86W56); experiment: Biochemical assay (PARG, TFMU-ADPr substrate); conditions: PARG, TFMU-ADPr substrate
[2] = tested on: HCC1806; experiment: Cell viability assay (CellTiter-Glo); assay type: cell-based, Human; conditions: Homo sapiens, HCC1806, 168 h, HCC1806, 7 days, CellTiter-Glo; read-out: IC50 (nM) in cell viability assay

Sequence of PARG (Q86W56 whole entry): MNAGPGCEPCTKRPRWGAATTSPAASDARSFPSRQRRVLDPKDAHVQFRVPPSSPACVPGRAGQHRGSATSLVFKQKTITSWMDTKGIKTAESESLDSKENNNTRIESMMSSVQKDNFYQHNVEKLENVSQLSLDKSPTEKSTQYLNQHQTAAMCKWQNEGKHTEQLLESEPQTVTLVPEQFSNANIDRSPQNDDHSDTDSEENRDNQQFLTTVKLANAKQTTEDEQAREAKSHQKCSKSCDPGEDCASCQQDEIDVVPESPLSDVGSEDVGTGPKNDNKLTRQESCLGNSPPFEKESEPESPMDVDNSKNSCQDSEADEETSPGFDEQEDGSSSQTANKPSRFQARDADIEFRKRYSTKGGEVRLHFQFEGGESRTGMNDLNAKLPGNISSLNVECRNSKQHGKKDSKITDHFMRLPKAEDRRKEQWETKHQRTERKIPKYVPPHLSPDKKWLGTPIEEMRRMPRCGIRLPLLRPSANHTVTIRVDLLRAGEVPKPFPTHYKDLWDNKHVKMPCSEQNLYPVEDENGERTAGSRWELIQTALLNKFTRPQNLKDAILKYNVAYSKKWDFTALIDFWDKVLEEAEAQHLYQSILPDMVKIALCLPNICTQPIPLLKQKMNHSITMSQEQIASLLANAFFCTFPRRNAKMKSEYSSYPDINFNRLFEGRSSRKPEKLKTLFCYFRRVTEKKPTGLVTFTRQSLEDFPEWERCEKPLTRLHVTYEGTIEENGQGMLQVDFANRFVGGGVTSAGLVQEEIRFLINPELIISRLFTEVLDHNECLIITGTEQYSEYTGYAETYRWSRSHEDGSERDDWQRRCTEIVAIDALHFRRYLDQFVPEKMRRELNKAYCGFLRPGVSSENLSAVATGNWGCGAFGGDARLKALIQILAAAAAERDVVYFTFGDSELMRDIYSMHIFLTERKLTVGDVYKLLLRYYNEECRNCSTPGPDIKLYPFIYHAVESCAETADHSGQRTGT

IC50 [1] [nM] | IC50 [2] [nM] | Compound
13.8 | 1020 | CC(C)(F)C(=O)N1CCN(c2cc(S(=O)(=O)NC3(C#N)CC3)cn3c(-c4nnc(C(F)(F)F)s4)ncc23)CC1 [Example 224, N-(1-cyanocyclopropyl)-8-(4-(2-fluoro-2-methylpropanoyl)piperazin-1-yl)-3-(5-(trifluoromethyl)-1,3,4-thiadiazol-2-yl)imidazo[1,5-a]pyridine-6-sulfonamide]
7.94 | 600 | CC1(C(=O)N2CCN(c3cc(S(=O)(=O)NC4(C#N)CC4)cn4c(-c5nnc(C(F)(F)F)s5)ncc34)CC2)CC1 [Example 225, N-(1-cyanocyclopropyl)-8-(4-(1-methylcyclopropane-1-carbonyl)piperazin-1-yl)-3-(5-(trifluoromethyl)-1,3,4-thiadiazol-2-yl)imidazo[1,5-a]pyridine-6-sulfonamide]
26.3 | 4850 | N#CC1(NS(=O)(=O)c2cc(N3CCN(C(=O)C4COC4)CC3)c3cnc(-c4nnc(C(F)(F)F)s4)n3c2)CC1 [Example 226, N-(1-cyanocyclopropyl)-8-(4-(oxetane-3-carbonyl)piperazin-1-yl)-3-(5-(trifluoromethyl)-1,3,4-thiadiazol-2-yl)imidazo[1,5-a]pyridine-6-sulfonamide]
0.38 | 107 | COC1(C(=O)N2CCN(c3cc(S(=O)(=O)NC4(C#N)CC4)cn4c(-c5nnc(C(F)(F)F)s5)ncc34)CC2)CC1 [Example 228, N-(1-cyanocyclopropyl)-8-(4-(1-methoxycyclopropane-1-carbonyl)piperazin-1-yl)-3-(5-(trifluoromethyl)-1,3,4-thiadiazol-2-yl)imidazo[1,5-a]pyridine-6-sulfonamide]
3.31 | 800 | N#CC1(NS(=O)(=O)c2cc(N3CCN(C(=O)N4CCCC4)CC3)c3cnc(-c4nnc(C(F)(F)F)s4)n3c2)CC1 [Example 229, N-(1-cyanocyclopropyl)-8-(4-(pyrrolidine-1-carbonyl)piperazin-1-yl)-3-(5-(trifluoromethyl)-1,3,4-thiadiazol-2-yl)imidazo[1,5-a]pyridine-6-sulfonamide]
120 | 8000 | N#CC1(NS(=O)(=O)c2cc(N3CC[C@@H](O)C3)c3cnc(-c4nnc(C(F)(F)F)s4)n3c2)CC1 [Example 230, (R)-N-(1-cyanocyclopropyl)-8-(3-hydroxypyrrolidin-1-yl)-3-(5-(trifluoromethyl)-1,3,4-thiadiazol-2-yl)imidazo[1,5-a]pyridine-6-sulfonamide]
8.32 | 500 | N#CC1(NS(=O)(=O)c2cc(N3CCN(C(=O)C(O)C(F)(F)F)CC3)c3cnc(-c4nnc(C(F)(F)F)s4)n3c2)CC1 (stereo not drawn) [Example 231, N-(1-cyanocyclopropyl)-8-(4-(3,3,3-trifluoro-2-hydroxypropanoyl)piperazin-1-yl)-3-(5-(trifluoromethyl)-1,3,4-thiadiazol-2-yl)imidazo[1,5-a]pyridine-6-sulfonamide]
31.6 | 953 | N#CC1(NS(=O)(=O)c2ccc3c(C4=CC5(CC4)CN(C(=O)C4CC4(F)F)C5)nc(-c4nnc(C(F)(F)F)s4)n3c2)CC1 (stereo not drawn) [Example 232, N-(1-cyanocyclopropyl)-1-(2-(2,2-difluorocyclopropane-1-carbonyl)-2-azaspiro[3.4]oct-5-en-6-yl)-3-(5-(trifluoromethyl)-1,3,4-thiadiazol-2-yl)imidazo[1,5-a]pyridine-6-sulfonamide]
45.7 | 3000 | N#CC1(NS(=O)(=O)c2cc(N3CCNCC3)c3cnc(-c4nnc(C(F)(F)F)s4)n3c2)CC1 [Example 233, N-(1-cyanocyclopropyl)-8-(piperazin-1-yl)-3-(5-(trifluoromethyl)-1,3,4-thiadiazol-2-yl)imidazo[1,5-a]pyridine-6-sulfonamide]
13.2 | 4000 | CC(C)OC(=O)N1CCN(c2cc(S(=O)(=O)NC3(C#N)CC3)cn3c(-c4nnc(C(F)(F)F)s4)ncc23)CC1 [Example 234, isopropyl 4-(6-(N-(1-cyanocyclopropyl)sulfamoyl)-3-(5-(trifluoromethyl)-1,3,4-thiadiazol-2-yl)imidazo[1,5-a]pyridin-8-yl)piperazine-1-carboxylate]
4.37 | 4940 | N#CC1(NS(=O)(=O)c2cc(N3CCN(C(=O)c4ccn[nH]4)CC3)c3cnc(-c4nnc(C(F)(F)F)s4)n3c2)CC1 [Example 235, 8-(4-(1H-pyrazole-5-carbonyl)piperazin-1-yl)-N-(1-cyanocyclopropyl)-3-(5-(trifluoromethyl)-1,3,4-thiadiazol-2-yl)imidazo[1,5-a]pyridine-6-sulfonamide]
2.88 | 4390 | N#CC1(NS(=O)(=O)c2cc(N3CCN(C(=O)C4(O)CC4)CC3)c3cnc(-c4nnc(C(F)(F)F)s4)n3c2)CC1 [Example 237, N-(1-cyanocyclopropyl)-8-(4-(1-hydroxycyclopropane-1-carbonyl)piperazin-1-yl)-3-(5-(trifluoromethyl)-1,3,4-thiadiazol-2-yl)imidazo[1,5-a]pyridine-6-sulfonamide]
38 | 15000 | Cn1ccnc1N1CCN(c2cc(S(=O)(=O)NC3(C#N)CC3)cn3c(-c4nnc(C(F)(F)F)s4)ncc23)CC1 [Example 238, N-(1-cyanocyclopropyl)-8-(4-(1-methyl-1H-imidazol-2-yl)piperazin-1-yl)-3-(5-(trifluoromethyl)-1,3,4-thiadiazol-2-yl)imidazo[1,5-a]pyridine-6-sulfonamide]
380 | 9790 | N#CC1(NS(=O)(=O)c2cc(N3CC[C@H](O)C3)c3cnc(-c4nnc(C(F)(F)F)s4)n3c2)CC1 [Example 239, (S)-N-(1-cyanocyclopropyl)-8-(3-hydroxypyrrolidin-1-yl)-3-(5-(trifluoromethyl)-1,3,4-thiadiazol-2-yl)imidazo[1,5-a]pyridine-6-sulfonamide]
13.2 | 2440 | N#CC1(NS(=O)(=O)c2cc(N3CCN(C(=O)C4CC4(F)F)CC3)c3cnc(-c4nnc(C(F)(F)F)s4)n3c2)CC1 (stereo not drawn) [Example 240, N-(1-cyanocyclopropyl)-8-(4-(2,2-difluorocyclopropane-1-carbonyl)piperazin-1-yl)-3-(5-(trifluoromethyl)-1,3,4-thiadiazol-2-yl)imidazo[1,5-a]pyridine-6-sulfonamide]
24 | 4180 | N#CC1(NS(=O)(=O)c2cc(N3CCN(C(=O)C(F)F)CC3)c3cnc(-c4nnc(C(F)(F)F)s4)n3c2)CC1 [Example 241, N-(1-cyanocyclopropyl)-8-(4-(2,2-difluoroacetyl)piperazin-1-yl)-3-(5-(trifluoromethyl)-1,3,4-thiadiazol-2-yl)imidazo[1,5-a]pyridine-6-sulfonamide]
52.5 | 2980 | CC1(O)CC2(CCN(c3cc(S(=O)(=O)NC4(C#N)CC4)cn4c(-c5nnc(C(F)(F)F)s5)ncc34)CC2)C1 [Example 242, N-(1-cyanocyclopropyl)-8-(2-hydroxy-2-methyl-7-azaspiro[3.5]nonan-7-yl)-3-(5-(trifluoromethyl)-1,3,4-thiadiazol-2-yl)imidazo[1,5-a]pyridine-6-sulfonamide]
871 | 200 | COc1ccc(C(=O)/C=C/C(=O)N2CCN(c3cc(S(=O)(=O)NC4CC4)cn4c(-c5nnc(C(F)(F)F)s5)ncc34)CC2)cc1 [Example 243, (E)-N-cyclopropyl-8-(4-(4-(4-methoxyphenyl)-4-oxobut-2-enoyl)piperazin-1-yl)-3-(5-(trifluoromethyl)-1,3,4-thiadiazol-2-yl)imidazo[1,5-a]pyridine-6-sulfonamide]
75.9 | 9000 | N#CC1(NS(=O)(=O)c2cc(N3CCN(c4ccccn4)CC3)c3cnc(-c4nnc(C(F)(F)F)s4)n3c2)CC1 [Example 244, N-(1-cyanocyclopropyl)-8-(4-(pyridin-2-yl)piperazin-1-yl)-3-(5-(trifluoromethyl)-1,3,4-thiadiazol-2-yl)imidazo[1,5-a]pyridine-6-sulfonamide]
28.8 | 2360 | CO[C@H]1C[C@H](C(=O)N2CCN(c3cc(S(=O)(=O)NC4(C#N)CC4)cn4c(-c5nnc(C(F)(F)F)s5)ncc34)CC2)C1 [Example 245, N-(1-cyanocyclopropyl)-8-(4-((1r,3r)-3-methoxycyclobutane-1-carbonyl)piperazin-1-yl)-3-(5-(trifluoromethyl)-1,3,4-thiadiazol-2-yl)imidazo[1,5-a]pyridine-6-sulfonamide]
692 | 6440 | N#CC1(NS(=O)(=O)c2cc(N3CCNC(=O)C3)c3cnc(-c4nnc(C(F)(F)F)s4)n3c2)CC1 [Example 248, N-(1-cyanocyclopropyl)-8-(3-oxopiperazin-1-yl)-3-(5-(trifluoromethyl)-1,3,4-thiadiazol-2-yl)imidazo[1,5-a]pyridine-6-sulfonamide]
115 | 7320 | CN(C)CCC(=O)N1CCN(c2cc(S(=O)(=O)NC3(C#N)CC3)cn3c(-c4nnc(C(F)(F)F)s4)ncc23)CC1 [Example 249, N-(1-cyanocyclopropyl)-8-(4-(3-(dimethylamino)propanoyl)piperazin-1-yl)-3-(5-(trifluoromethyl)-1,3,4-thiadiazol-2-yl)imidazo[1,5-a]pyridine-6-sulfonamide]
38 | 1280 | CN(C)CC(=O)N1CCN(c2cc(S(=O)(=O)NC3(C#N)CC3)cn3c(-c4nnc(C(F)(F)F)s4)ncc23)CC1 [Example 250, N-(1-cyanocyclopropyl)-8-(4-(dimethylglycyl)piperazin-1-yl)-3-(5-(trifluoromethyl)-1,3,4-thiadiazol-2-yl)imidazo[1,5-a]pyridine-6-sulfonamide]
16.6 | 2000 | CN1CC(C(=O)N2CCN(c3cc(S(=O)(=O)NC4(C#N)CC4)cn4c(-c5nnc(C(F)(F)F)s5)ncc34)CC2)C1 [Example 252, N-(1-cyanocyclopropyl)-8-(4-(1-methylazetidine-3-carbonyl)piperazin-1-yl)-3-(5-(trifluoromethyl)-1,3,4-thiadiazol-2-yl)imidazo[1,5-a]pyridine-6-sulfonamide]
